According to ChEMBL document CHEMBL4177606, “Synthesis of novel 1,2,5-oxadiazoles and evaluation of action against Acinetobacter baumannii” (2017):

Test system: Acinetobacter baumannii
Assay: Antibacterial activity against Acinetobacter baumannii ATCC 17978 after 24 to 48 hrs in presence of iron chelator 2,2'-dipyridyl by CLSI method
Type: functional

Row | SMILES | MIC [µM]
1 | Cc1nonc1NC(=O)CSc1nc2ccccc2[nH]1 | 2000
2 | Cc1nonc1NC(=O)CSc1ccccn1 | 2000
3 | Cc1nonc1NC(=O)CSc1ccc2ccccc2c1 | > 4000
4 | O=C(CCc1ccccc1)Nc1nonc1-c1ccccc1 | > 4000
5 | Cc1nonc1NC(=O)COc1ccccc1 | 2000
6 | Cc1nonc1NC(=O)CSc1ncccn1 | 4000
7 | CCCc1nonc1NC(=O)CCc1ccccc1 | 1000
8 | Cc1nonc1NC(=O)/C=C/c1ccccc1O | 500
9 | Cc1nonc1NC(=O)CCc1ccccc1 | 1000
10 | Cc1ccnc(SCC(=O)Nc2nonc2C)n1 | 4000
11 | Cc1nonc1NC(=O)CSc1nc2ccccc2s1 | > 4000
12 | O=C(COc1ccccc1)Nc1nonc1-c1ccccc1 | > 4000
13 | Cc1nonc1NC(=O)CN(CC(=O)Nc1nonc1C)c1ccccc1 | > 4000
14 | O=C(/C=C/c1ccccc1)Nc1nonc1-c1ccccc1 | > 4000
15 | Cc1nonc1NC(=O)COc1ccc(Cl)cc1 | 1000
16 | Cc1nonc1NC(=O)COc1cccc2ccccc12 | > 4000

Row | SMILES | MIC [µM]
17 | CC(=O)Oc1ccccc1/C=C/C(=O)Nc1nonc1C | 2000
18 | Cc1nonc1NC(=O)/C=C/c1ccc(O)c(O)c1 | > 4000
19 | Cc1nonc1NC(=O)CSc1ccccc1 | 1000
20 | CCCc1nonc1NC(=O)/C=C/c1ccccc1 | > 4000
21 | O=C(CSc1ccccc1)Nc1nonc1-c1ccccc1 | > 4000
22 | Cc1nonc1NC(=O)COc1cccc(Cl)c1Cl | > 4000
23 | Cc1nonc1NC(=O)c1ccc2ccccc2c1 | 4000
24 | Cc1nonc1NC(=O)COc1ccc(Cl)c(Cl)c1 | 1000
25 | CC(=O)Oc1ccc(/C=C/C(=O)Nc2nonc2C)cc1OC(C)=O | 4000
26 | Cc1nonc1NC(=O)COc1ccccc1Cl | > 4000
27 | O=C(COc1ccccc1Cl)Nc1nonc1-c1ccccc1 | > 4000
28 | COc1ccc(CCC(=O)Nc2nonc2C)cc1 | 2000
29 | Cc1nonc1NC(=O)/C=C/c1ccccc1 | 1000
30 | Cc1nonc1NC(=O)CSC1=NCCS1 | 2000
31 | Cc1nonc1NC(=O)c1cccc2ccccc12 | 1000
